One may read the Ki as the equilibrium dissociation constant of an inhibitor or competing ligand from its target.

What all share (assay type): binding
The target in experiment [1] is Bcl-xL (residues 1-209, loop 45-86 deleted) (Homo sapiens (Human), UniProt Q07817, DEL45-86). Nature of the experiment: Fluorescence polarization anisotropy competition selectivity assay (FITC-Bak peptide) with Bcl-xL. Particulars: Table 3; 4 nM Bcl-xL, 10 nM FITC-Bak. The method, then: (§1) Compound affinity was measured using a fluorescence polarization anisotropy competition assay. Anisotropy measurements were carried out in 384-well, black, flat-bottom plates (Greiner Bio-one, Monroe, N.C., USA). The assay was run using either a fluorescein isothiocyanate-labeled BH3 peptide derived from Bak (FITC-AHx-[…]-NH2) or a fluorescein isothiocyanate-labeled BH3 peptide derived from Bim (FITC-AHx-[…]-NH2) that were purchased from GenScript (Piscataway, N.J.) at >95% purity and used without further purification. 10 nM FITC-Bak peptide and 15 nM recombinant Mcl-1 (residues 172-327) were added to assay buffer (3 mM dithiothreitol, 50 mM NaCl, 20 mM Tris, pH 7.5). The Bim based assay was run with 1 nM FITC-Bim peptide and 1.5 nM recombinant Mcl-1 (residues 172-327) added to assay buffer (20 mM TRIS pH 7.5, 50 mM NaCl, 3 mM DTT, 0.01% CHAPS). For selectivity assays, 40 nM Bcl-2 (residues 1-207^A96T,G110R, Δ35-91, replaced with Bcl-xL35-50) or 4 nM Bcl-xL (residues 1-209, loop 45-86 deleted) were incubated with 10 nM FITC-Bak in assay buffer.
Chain of Bcl-xL (residues 1-209, loop 45-86 deleted) (Q07817 other isoform, or with tags, fused parts or gaps del 45-86): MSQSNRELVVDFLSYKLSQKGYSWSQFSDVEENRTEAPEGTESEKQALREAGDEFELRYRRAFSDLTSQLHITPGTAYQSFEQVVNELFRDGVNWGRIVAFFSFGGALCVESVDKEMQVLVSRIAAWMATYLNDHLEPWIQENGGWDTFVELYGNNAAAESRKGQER
(§2) Compounds are diluted in DMSO in a 10-point, 3-fold serial dilution scheme. For the FITC-BAK assay 2.5 uL compound is added to 47.5 μL of assay buffer containing FITC-Bak and protein, for a final DMSO concentration of 5% and a top concentration of 20 μM. […] […]. The plate was mixed and incubated for 90 minutes at room temperature. Anisotropy is measured at excitation wavelength 480 nm and emission wavelength 535 nm using an EnVision Multi-label plate reader (PerkinElmer, Wellesley, Mass., USA) or a BioTek Cytation 3 (BioTek, Winooski, Vt., USA). […] IC50 is converted to a binding dissociation constant (Ki value) according to the formula of Wang Z. FEBS Lett (1996) 3, 245.
On the technique in general: Fluorescence polarisation rises when a labelled molecule tumbles more slowly, as on binding a larger partner.

Experiment [2] addresses Bcl-2 (residues 1-207 A96T,G110R, Δ35-91, replaced with Bcl-xL35-50) (Homo sapiens, UniProt P10415, A37E/DEL42-87/G36T/INS34DVEEN/P40E/P88T/P90S/P91E/V35R/V89E). Nature of the experiment: Fluorescence polarization anisotropy competition selectivity assay (FITC-Bak peptide) with Bcl-2. The note with it: Table 3; 40 nM Bcl-2, 10 nM FITC-Bak. The method, then: as §1, §2
The target of experiment [3] is recombinant Mcl-1 (residues 172-327) (Homo sapiens (Human), UniProt Q07820). In words: Fluorescence polarization anisotropy competition assay (FITC-Bak or FITC-Bim BH3 peptide) with Mcl-1. Particulars: Table 2; Ki bins given in nM; FITC-Bak or FITC-Bim peptide competition; Ki converted from IC50; read-out: Ki for Inhibition of Mcl-1.
Chain of recombinant Mcl-1 (residues 172-327) (Q07820 172-327): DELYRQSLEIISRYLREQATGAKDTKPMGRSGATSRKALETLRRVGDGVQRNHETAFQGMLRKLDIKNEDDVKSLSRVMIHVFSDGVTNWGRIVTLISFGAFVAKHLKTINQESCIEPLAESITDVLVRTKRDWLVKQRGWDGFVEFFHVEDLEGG

In the case of `Cc1cc(OCCCc2c3n(c4c(-c5c(C)nn(C)c5C)cccc24)CCCN(Cc2cccc(C(=O)O)c2)C3=O)cc(C)c1Cl` [I-32, 3-((11-(3-(4-chloro-3,5-dimethylphenoxy)propyl)-1-oxo-7-(1,3,5-trimethyl-1H-pyrazol-4-yl)-4,5-dihydro-1H-[1,4]diazepino[1,2-a]indol-2(3H)-yl)methyl)benzoic acid], the results for the inhibitory constant (Ki) in experiment [1] and in experiment [2] were 13.4 µM and 3.82 µM, respectively.

Take `Cc1cc(OCCCc2c(C(=O)Nc3cccc(C(=O)O)c3)[nH]c3c(-c4c(C)nn(C)c4C)c(Cl)ccc23)cc(C)c1Cl` [I-39, 3-(6-chloro-3-(3-(4-chloro-3,5-dimethylphenoxy)propyl)-7-(1,3,5-trimethyl-1H-pyrazol-4-yl)-1H-indole-2-carboxamido)benzoic acid]: the Ki stood at 4.59 µM in experiment [1] and 1.54 µM in experiment [2].

As for `Cc1cc(OCCCc2c(C(=O)NCc3c[nH]c(C(=O)O)c3)[nH]c3c(-c4c(C)nn(C)c4C)cccc23)cc(C)c1Cl` [I-71, 4-((3-(3-(4-chloro-3,5-dimethylphenoxy)propyl)-7-(1,3,5-trimethyl-1H-pyrazol-4-yl)-1H-indole-2-carboxamido)methyl)-1H-pyrrole-2-carboxylic acid], the Ki in experiment [1] stood at 13.8 µM; in experiment [2], 5.95 µM.

As to `Cc1cc(OCCCc2c3n(c4c(-c5c(C)nn(C)c5C)c(Cl)ccc24)CCCN(Cc2cccc(C(=O)O)c2)C3=O)cc(C)c1Cl` [I-80, 3-((8-chloro-11-(3-(4-chloro-3,5-dimethylphenoxy)propyl)-1-oxo-7-(1,3,5-trimethyl-1H-pyrazol-4-yl)-4,5-dihydro-1H-[1,4]diazepino[1,2-a]indol-2(3H)-yl)methyl)benzoic acid], the figures for the Ki in experiment [1] and in experiment [2] were 6.75 µM and 2.34 µM, respectively.

`Cc1cc(OCCCc2c3n(c4c(-c5c(C)nn(C)c5C)c(Cl)ccc24)CCCN(c2cccc(C(=O)O)c2)C3=O)cc(C)c1Cl` [I-177, 3-(8-chloro-11-(3-(4-chloro-3,5-dimethylphenoxy)propyl)-1-oxo-7-(1,3,5-trimethyl-1H-pyrazol-4-yl)-4,5-dihydro-1H-[1,4]diazepino[1,2-a]indol-2(3H)-yl)benzoic acid]: in experiment [2], the inhibition constant (Ki) came to 1.9 µM.

As to `Cc1cc(OCCCc2c3n(c4c(-c5c(C)nn(C)c5C)c(Cl)ccc24)CCCN(c2ccc(C(=O)NS(=O)(=O)C4CC4)cc2)C3=O)cc(C)c1Cl` [I-361, 4-(8-chloro-11-(3-(4-chloro-3,5-dimethylphenoxy)propyl)-1-oxo-7-(1,3,5-trimethyl-1H-pyrazol-4-yl)-4,5-dihydro-H-[1,4]diazepino[1,2-a]indol-2(3H)-yl)-N-(cyclopropylsulfonyl)benzamide], in experiment [3], the inhibitory constant (Ki) is below 50 nM.

With `Cc1cc(OCCCc2c3n(c4c(-c5c(C)nn(C)c5C)c(Cl)ccc24)CCCN(c2cc(C(=O)O)cc4nnn(C)c24)C3=O)cc(C)c1Cl` [I-362, 7-(8-chloro-11-(3-(4-chloro-3,5-dimethylphenoxy)propyl)-1-oxo-7-(1,3,5-trimethyl-1H-pyrazol-4-yl)-4,5-dihydro-1H-[1,4]diazepino[1,2-a]indol-2(3H)-yl)-1-methyl-1H-benzo[d][1,2,3]triazole-5-carboxylic acid], the inhibitory constant (Ki) in experiment [3] was below 50 nM.

As to `Cc1cc(OCCCc2c3n(c4c(-c5c(C)nn(C)c5C)c(Cl)ccc24)CCCN(c2cc(C(=O)O)cc4c2OCCO4)C3=O)cc(C)c1Cl` [I-364, 8-(8-chloro-11-(3-(4-chloro-3,5-dimethylphenoxy)propyl)-1-oxo-7-(1,3,5-trimethyl-1H-pyrazol-4-yl)-4,5-dihydro-1H-[1,4]diazepino[1,2-a]indol-2(3H)-yl)-2,3-dihydrobenzo[b][1,4]dioxine-6-carboxylic acid], in experiment [3], the inhibition constant (Ki) was below 50 nM.

`Cc1cc(OCCCc2c3n(c4c(-c5c(C)nn(C)c5C)c(Cl)ccc24)CCCN(c2cc(C(=O)O)cc4c2ncn4C)C3=O)cc(C)c1Cl` [I-365, 4-(8-chloro-11-(3-(4-chloro-3,5-dimethylphenoxy)propyl)-1-oxo-7-(1,3,5-trimethyl-1H-pyrazol-4-yl)-4,5-dihydro-1H-[1,4]diazepino[1,2-a]indol-2(3H)-yl)-1-methyl-1H-benzo[d]imidazole-6-carboxylic acid]: in experiment [3], the inhibitory constant (Ki) is below 50 nM.

For the compound `Cc1cc(OCCCc2c3n(c4c(-c5c(C)nn(C)c5C)c(Cl)ccc24)CCCN(c2cc(C(=O)O)c4cnn(C)c4c2)C3=O)cc(C)c1Cl` [I-367, 6-(8-chloro-11-(3-(4-chloro-3,5-dimethylphenoxy)propyl)-1-oxo-7-(1,3,5-trimethyl-1H-pyrazol-4-yl)-4,5-dihydro-1H-[1,4]diazepino[1,2-a]indol-2(3H)-yl)-1-methyl-1H-indazole-4-carboxylic acid], the inhibitory constant (Ki) in experiment [3] was below 50 nM.

`Cc1cc(OCCCc2c3n(c4c(-c5c(C)nn(C)c5C)c(Cl)ccc24)CCCN(c2cccc(C(=O)NS(C)(=O)=O)c2)C3=O)cc(C)c1Cl` [I-368, 3-(8-chloro-11-(3-(4-chloro-3,5-dimethylphenoxy)propyl)-1-oxo-7-(1,3,5-trimethyl-1H-pyrazol-4-yl)-4,5-dihydro-H-[1,4]diazepino[1,2-a]indol-2(3H)-yl)-N-(methylsulfonyl)benzamide]: in experiment [3], the Ki is below 50 nM.

On to `Cc1cc(OCCCc2c3n(c4c(-c5c(C)nn(C)c5C)c(Cl)ccc24)CCCN(c2cccc(C(=O)NS(=O)(=O)C4CC4)c2)C3=O)cc(C)c1Cl` [I-369, 3-(8-chloro-11-(3-(4-chloro-3,5-dimethylphenoxy)propyl)-1-oxo-7-(1,3,5-trimethyl-1H-pyrazol-4-yl)-4,5-dihydro-H-[1,4]diazepino[1,2-a]indol-2(3H)-yl)-N-(cyclopropylsulfonyl)benzamide], for which the Ki in experiment [3] was below 50 nM.

On to `Cc1cc(OCCCc2c(C(=O)NCc3cc(Br)cc(C(=O)O)c3)[nH]c3c(-c4c(C)nn(C)c4C)c(Cl)ccc23)cc(C)c1Cl` [I-370, 3-bromo-5-((6-chloro-3-(3-(4-chloro-3,5-dimethylphenoxy)propyl)-7-(1,3,5-trimethyl-1H-pyrazol-4-yl)-1H-indole-2-carboxamido)methyl)benzoic acid], for which, in experiment [3], the inhibition constant (Ki) is below 50 nM.

On to `Cc1cc(OCCCc2c3n(c4c(-c5c(C)nn(C)c5C)c(Cl)ccc24)CCCN(C[C@H]2CC[C@H](C(=O)O)CC2)C3=O)cc(C)c1Cl` [I-371, (1r,4r)-4-((8-chloro-11-(3-(4-chloro-3,5-dimethylphenoxy)propyl)-1-oxo-7-(1,3,5-trimethyl-1H-pyrazol-4-yl)-4,5-dihydro-1H-[1,4]diazepino[1,2-a]indol-2(3H)-yl)methyl)cyclohexane-1-carboxylic acid], for which the inhibition constant (Ki) in experiment [3] is below 50 nM.

As to `Cc1cc(OCCCc2c(C(=O)NCc3cccc(C(=O)O)c3)n(CCN3CCOCC3)c3c(-c4c(C)nn(C)c4C)c(Cl)ccc23)cc(C)c1Cl` [I-372, 3-((6-chloro-3-(3-(4-chloro-3,5-dimethylphenoxy)propyl)-1-(2-morpholinoethyl)-7-(1,3,5-trimethyl-1H-pyrazol-4-yl)-1H-indole-2-carboxamido)methyl)benzoic acid], the Ki in experiment [3] was below 50 nM.

As for `Cc1cc(OCCCc2c(C(=O)NCc3ccc(C(=O)O)cc3)n(CCN3CCOCC3)c3c(-c4c(C)nn(C)c4C)c(Cl)ccc23)cc(C)c1Cl` [I-373, 4-((6-chloro-3-(3-(4-chloro-3,5-dimethylphenoxy)propyl)-1-(2-morpholinoethyl)-7-(1,3,5-trimethyl-1H-pyrazol-4-yl)-1H-indole-2-carboxamido)methyl)benzoic acid], in experiment [3], the inhibition constant (Ki) is below 50 nM.

As for `Cc1cc(OCCCc2c(C(=O)N(C)Cc3ccc(C(=O)O)cc3)n(CCN3CCOCC3)c3c(-c4c(C)nn(C)c4C)c(Cl)ccc23)cc(C)c1Cl` [I-374, 4-((6-chloro-3-(3-(4-chloro-3,5-dimethylphenoxy)propyl)-N-methyl-1-(2-morpholinoethyl)-7-(1,3,5-trimethyl-1H-pyrazol-4-yl)-1H-indole-2-carboxamido)methyl)benzoic acid], the inhibitory constant (Ki) in experiment [3] is below 50 nM.

With `Cc1cc(OCCCc2c3n(c4c(-c5c(C)nn(C)c5C)c(Cl)ccc24)CCCN(c2nn(C)c4cc(C(=O)O)ccc24)C3=O)cc(C)c1Cl` [I-375, 3-(8-chloro-11-(3-(4-chloro-3,5-dimethylphenoxy)propyl)-1-oxo-7-(1,3,5-trimethyl-1H-pyrazol-4-yl)-4,5-dihydro-1H-[1,4]diazepino[1,2-a]indol-2(3H)-yl)-1-methyl-1H-indazole-6-carboxylic acid], in experiment [3], the Ki is below 50 nM.

For the origin of these results see patent US10533010B2, “Substituted indole Mcl-1 inhibitors” (Vanderbilt University, priority 2014, dated 2020).
